Where a name gives a salt, the structure may show the parent alone. Read-outs that look alike come from different tables or passages of the source.
Tests used:
Assay type in all cases: in vivo
Botrytis cinerea = test: Botrytis test (beans)/protective; conditions: bean plants, protective spray, lesion size 2 days after inoculation
Method: (§1) Solvent: 24.5 parts by weight of acetone
(§2) • 24.5 parts by weight of dimethylacetamide Emulsifier: 1 part by weight of alkylaryl polyglycol ether
(§3) To produce a suitable preparation of active compound, 1 part by weight of active compound is mixed with the stated amounts of solvent and emulsifier, and the concentrate is diluted with water to the desired concentration.
To test for protective activity, young plants are sprayed with the preparation of active compound. After the spray coating has dried on, 2 small pieces of agar covered with growth of Botrytis cinerea are placed on each leaf. The inoculated plants are placed in a darkened chamber at 20° C. and a relative atmospheric humidity of 100%.
2 days after the inoculation, the size of the lesions on the leaves is evaluated. 0% means an efficacy which corresponds to that of the control, while an efficacy of 100% means that no disease is observed.

Alternaria solani = test: Alternaria test (tomatoes)/protective; conditions: tomato plants, protective spray, evaluated 3 days after inoculation; for pest or weed control at 50 ppm: rate of application 50 ppm; for pest or weed control at 25 ppm: rate of application 25 ppm
Method: as §1, §2, §3
(§4) To test for protective activity, young plants are sprayed with the preparation of active compound at the stated rate of application. After the spray coating has dried on, the plants are inoculated with an aqueous spore suspension of Alternaria solani. The plants are then placed in an incubation cabinet at approximately 20° C. and a relative atmospheric humidity of 100%.
The test is evaluated 3 days after the inoculation. 0% means an efficacy which corresponds to that of the control while an efficacy of 100% means that no disease is observed.

Phytophthora infestans = conditions: tomato plants, protective spray, evaluated 3 days after inoculation
Venturia inaequalis = test: Venturia test (apples)/protective; conditions: apple plants, protective spray, rate of application 100 ppm, evaluated 10 days after inoculation
Method: as §1, §2, §3
as §4, with “conidia” for “spore”, “the causal agent of apple scab (Venturia inaequalis) and” for “Alternaria solani. The plants are”, “remain for 1 day” for “placed”
The plants are then placed in a greenhouse at approximately 21° C. and a relative atmospheric humidity of approximately 90%.
The test is evaluated 10 days after the inoculation. 0% means an efficacy which corresponds to that of the control, while an efficacy of 100% means that no disease is observed.

[1] = Alternaria solani, 72 h, rate of application 10 ppm, read-out: Efficacy in %
[2] = Alternaria solani, 72 h, read-out: Efficacy in %

Compound `O=[N+]([O-])c1cc(C(F)(F)F)c(Cl)c([N+](=O)[O-])c1Nc1ncc(C(F)(F)F)cc1Cl` [fluazinam] has an Efficacy in % (Botrytis cinerea; rate of application 10 ppm) of 79%.

In the case of `COC(=O)N(OC)c1ccccc1COc1ccn(-c2ccc(Cl)cc2)n1` [pyraclostrobin], the pest or weed control at 10 ppm (Alternaria solani; [1]) is reported as 45%.

Work on propineb [Ppopineb] yielded an Efficacy in % (Phytophthora infestans; rate of application 10 ppm) of 0%.

With `CCNC(=O)NC(=O)/C(C#N)=N/OC` [cymoxanil] the Efficacy in % (Venturia inaequalis) was 23% and the pest or weed control at 50 ppm (Alternaria solani; [2]) was 23%.

For `CC(C)(C)C(O)(CCc1ccc(Cl)cc1)Cn1cncn1` (stereo not drawn) [tebuconazole], the pest or weed control at 10 ppm (Alternaria solani; [1]) was 55%.

With `CCO[PH](=O)O` [fosetyl-Al] the Efficacy in % (Phytophthora infestans; rate of application 10 ppm) was 0%.

`CCCCCOC(=O)Nc1cccc(CON=C(c2ccccc2)c2nnnn2C)n1` [formula 1, pentyl {6-[({[(1-methyl-1H-tetrazol-5-yl)(phenyl)methylidene]amino}oxy)methyl]pyridin-2-yl}carbamate] gave an Efficacy in % (Phytophthora infestans; rate of application 0.25 ppm) of 47%, an Efficacy in % (Phytophthora infestans; rate of application 0.5 ppm) of 57% and an Efficacy in % (Phytophthora infestans; rate of application 1 ppm) of 77%. It also gave an Efficacy in % (Venturia inaequalis) of 8%, a pest or weed control at 5 ppm (Alternaria solani; Alternaria solani, 72 h, rate of application 5 ppm, read-out: Efficacy in %) of 0% and a pest or weed control at 10 ppm (Alternaria solani; [1]) of 0%. For the same compound, the pest or weed control at 25 ppm (Alternaria solani; [2]) was 0%, the pest or weed control at 50 ppm (Alternaria solani; [2]) was 8% and the pest or weed control at 100 ppm (Alternaria solani; Alternaria solani, 72 h, rate of application 100 ppm, read-out: Efficacy in %) was 0%. It also gave an Efficacy in % (Botrytis cinerea; rate of application 50 ppm) of 4% and an Efficacy in % (Botrytis cinerea; rate of application 100 ppm) of 4%.

In the case of `CC(C)NC(=O)N1CC(=O)N(c2cc(Cl)cc(Cl)c2)C1=O` [iprodione], the Efficacy in % (Botrytis cinerea; rate of application 100 ppm) is reported as 66%.

In the case of `CO/C=C(/C(=O)OC)c1ccccc1Oc1cc(Oc2ccccc2C#N)ncn1` [azoxystrobin], the Efficacy in % (Alternaria solani; rate of application 10 ppm) is reported as 15%.

For `Cc1ccc(C(C)NC(=O)[C@@H](NC(=O)OC(C)C)C(C)C)cc1` (stereo partly drawn) [iprovalicarb], the Efficacy in % (Phytophthora infestans; rate of application 1 ppm) was 16%.

With mancozeb the Efficacy in % (Phytophthora infestans; rate of application 10 ppm) was 0%.

With `O=[N+]([O-])NC1=NCCN1Cc1ccc(Cl)nc1` [imidacloprid] the Efficacy in % (Venturia inaequalis) was 4% and the pest or weed control at 25 ppm (Alternaria solani; [2]) was 0%.

`O=C(Nc1ccccc1-c1ccc(Cl)cc1)c1cccnc1Cl` [boscalid] was tested, and the Efficacy in % (Botrytis cinerea; rate of application 5 ppm) was 21%.

`CN/C(=N\[N+](=O)[O-])NCc1cnc(Cl)s1` [clothianidin] was tested, and the Efficacy in % (Venturia inaequalis) was 66%.

Work on `OC(Cc1ccccc1Cl)(Cn1nc[nH]c1=S)C1(Cl)CC1` (stereo not drawn) [prothioconazole] yielded a pest or weed control at 2.5 ppm (Alternaria solani; Alternaria solani, 72 h, rate of application 2.5 ppm, read-out: Efficacy in %) of 23%.

Work on `N#Cc1c[nH]cc1-c1cccc2c1OC(F)(F)O2` [fludioxonil] yielded an Efficacy in % (Botrytis cinerea; rate of application 5 ppm) of 45%.

`CON=C(C(=O)OC)c1ccccc1CON=C(C)c1cccc(C(F)(F)F)c1` [trifloxystrobin] showed a pest or weed control at 10 ppm (Alternaria solani; [1]) of 35%.

`N#Cc1c(Cl)c(Cl)c(Cl)c(C#N)c1Cl` [chlorothalonil] was tested, and the Efficacy in % (Phytophthora infestans; rate of application 25 ppm) was 44% and the pest or weed control at 50 ppm (Alternaria solani; [2]) was 71%.

Work on `Cn1cc(C(=O)Nc2ccc(F)cc2-c2ccc(Cl)c(Cl)c2)c(C(F)F)n1` [bixafen, N-(3′,4′-dichloro-5-fluorobiphenyl-2-yl)-3-(difluoromethyl)-1-methyl-1H-pyrazole-4-carboxamide] yielded a pest or weed control at 1.25 ppm (Alternaria solani; Alternaria solani, 72 h, rate of application 1.25 ppm, read-out: Efficacy in %) of 65%.

Compound `Cc1nn(C)c(F)c1C(=O)Nc1ccccc1C(C)CC(C)C` (stereo not drawn) [N-[2-(1,3-dimethylbutyl)phenyl]-5-fluoro-1,3-dimethyl-1H-pyrazole-4-carboxamide] has a pest or weed control at 1 ppm (Alternaria solani; Alternaria solani, 72 h, rate of application 1 ppm, read-out: Efficacy in %) of 18%.

For `CO/N=C(/C1=NOCCO1)c1ccccc1Oc1ncnc(Oc2ccccc2Cl)c1F` [fluoxastrobin], the pest or weed control at 10 ppm (Alternaria solani; [1]) was 15%.

`CCCOC(=O)NCCCN(C)C` [propamocarb-HCl] showed an Efficacy in % (Venturia inaequalis) of 4% and a pest or weed control at 50 ppm (Alternaria solani; [2]) of 38%.

Source: patent US10188106B2 (priority 2008, dated 2019)
